The record followed here is paper PMC8989888, “Development of optimized drug-like small molecule inhibitors of the SARS-CoV-2 3CL protease for treatment of COVID-19” (Nature Communications, 2022).

The target of experiment [1] is T1, SARS-CoV-2 3CL protease (Severe acute respiratory syndrome coronavirus 2, UniProt P0DTD1). The experiment in a line: biochemical.
The target of experiment [2] is T1, SARS-CoV-2 3CL protease. The experiment in a line: biochemical. The conditions noted are these: for kinact/KI: read-out: SARS-CoV-2 3CLpro kinact/KI.
The subject of experiment [3] is SARS-CoV-2. As to the kind of experiment: microbe, parasite or virus in culture. It counts as cell-based. The conditions noted are these: for EC50: Severe acute respiratory syndrome coronavirus 2, 24 h, read-out: SARS-CoV-2 Huh-7ACE2 EC50.
Setting [4] is: 0.2 µM protease with 50 µM tested compound, replicates.
Where [5] appears, read: 200 nM protease, read-out: IC50.
Where [6] appears, read: 20 nM protease, read-out: SARS-CoV-2 3CLpro IC50.
The mark [7] stands for this setting: Concentration of inhibitor (nM) 0.19382.
Where [8] appears, read: Concentration of inhibitor (nM) 0.49485.
[9] abbreviates: Concentration of inhibitor (nM) 0.79588.
[10] abbreviates: Concentration of inhibitor (nM) 1.09691.
Setting [11] is: Concentration of inhibitor (nM) 1.39794.
Setting [12] is: Concentration of inhibitor (nM) 1.69897.
The mark [13] stands for this setting: Concentration of inhibitor (nM) 2.
The mark [14] stands for this setting: Concentration of inhibitor (nM) 2.30103.
The mark [15] stands for this setting: Concentration of inhibitor (nM) -0.10721.
Where [16] appears, read: Concentration of inhibitor (nM) -0.40824.
Setting [17] is: Concentration of inhibitor (nM) 2.60206.

Values joined by “and” are separate entries in the source; they are usually repeats but may differ in a detail not shown here. Identical values can stand only once. Like-named read-outs stand apart in the source and are kept apart here.

In general, IC50 refers to the concentration that inhibits the measured activity by half. Regarding `O=S(=O)(NCc1ccncn1)c1ccccc1` [AZVIII-49F], the “Normalized SARS-CoV-2 3CL protease activity” value in experiment [1] (setting [4]) was 1.058 and 1.081 and 1.099. The IC50 in experiment [1] (setting [5]) is above 50000 nM.

Take `O=CCN(Cc1ccccc1)S(=O)(=O)c1ccccc1` [AZVIII-57D]: in experiment [1] (setting [4]), the “Normalized SARS-CoV-2 3CL protease activity” value is 1.196 and 1.186 and 0.9817. In addition, in experiment [1] (setting [5]), the IC50 is above 50000 nM.

Regarding `COc1ccc(S(=O)(=O)N(CC=O)Cc2ccccc2)cc1` [AZVIII-57G], in experiment [1] (setting [4]), the “Normalized SARS-CoV-2 3CL protease activity” value was 1.117 (2×) and 1.175 (2×) and 1.168 (2×). Further, the 50% inhibitory concentration (IC50) in experiment [1] (setting [5]) is above 50000 nM.

For orientation: EC50 means the concentration that produces a half-maximal response. As for `O=C(N[C@@H](CC1CC1)C(=O)N[C@@H](C[C@@H]1CCNC1=O)C(O)S(=O)(=O)O)OCc1ccccc1` (stereo partly drawn) [NK01-14], the “observed inactivation rate vs compound concentration (Figure S19, replicate values)” value in experiment [2] is 0.0144 and -0.00118 and 0.0245 and 0.0068 and 0.0252 and 0.0272 and 0.0287 and 0.0225 and 0.0192 and -0.00612 and 0.0023 and 0.0187. The kinact/KI in experiment [2] is 71700 M⁻¹ s⁻¹. For the same molecule, the “inhibition of SARS-CoV-2 (Figure s17b dose-response, replicate values)” value (from here on “inhibition”) in experiment [3] is 107.44 and 106.681 and 107.657 and 104.164 and 95.5823 and 98.4941 and 57.1014 and 42.1437 and 64.5278 and 21.8135 and 20.6648 and 21.9136 and 20.2988 and 22.5837 and -3.217 and 20.0515 and 23.307 and 7.747 and 3.643 and 5.208 and 12.2626. In addition, in experiment [3], the 50% effective concentration (EC50) was 26 nM. Further, in experiment [1] (setting [6]), the half-maximal inhibitory concentration (IC50) was 22 nM. Besides, the “normalized activity, dose-response curve (Figure S16)” value (shortened to “normalized activity”) in experiment [1] (setting [7]) is 88.3287 and 88.0525; in experiment [1] (setting [8]) it was 79.1436 and 83.9088; in experiment [1] (setting [9]) it was 76.0359 and 72.2376; in experiment [1] (setting [10]) it was 63.3978 and 55.1105; in experiment [1] (setting [11]) it was 56.2155 and 53.3149; in experiment [1] (setting [12]) it was 37.1547 and 46.616. Also, the “normalized activity” value was 24.2403 and 25.2762 in experiment [1] (setting [13]); 7.666 and 9.392 in experiment [1] (setting [14]); 96.8923 and 94.268 in experiment [1] (setting [15]); 109.254 and 100 in experiment [1] (setting [16]).

For the molecule `CC(C)C[C@H](NC(=O)OCc1cc(F)c(F)cc1F)C(=O)N[C@@H](C[C@@H]1CCNC1=O)C(O)S(=O)(=O)O` (stereo partly drawn) [NK01-48], the “observed inactivation rate vs compound concentration (Figure S19, replicate values)” value in experiment [2] is 0.0181 and 0.0442 and 0.0252 and 0.0284 and 0.021 and 0.0128 and 0.0148 and 0.0158 and 0.0136 and 0.0037 and 0.0168 and 0.02 and 0.0021 and 0.0084 and 0.0011. Further, the kinact/KI in experiment [2] is 5000 M⁻¹ s⁻¹. For the same molecule, the “inhibition” value in experiment [3] was 125.494 and 126.964 and 86.3185 and 118.605 and 134.4 and 122.016 and 84.6265 and 61.89 and 119.128 and 54.4703 and 35.4275 and 15.416 and 32.4697 and 30.0193 and 47.7694 and 0.4554 and -12.5084 and -5.078 and 34.0338 and 10.0006 and 6.443. In addition, the EC50 in experiment [3] is 15 nM. Also, the IC50 in experiment [1] (setting [6]) is 92 nM. In addition, the “normalized activity” value is 99.5986 and 99.2546 in experiment [1] (setting [7]); 84.289 and 78.0963 in experiment [1] (setting [8]); 92.7179 and 89.3922 in experiment [1] (setting [9]); 76.6628 and 70.7569 in experiment [1] (setting [10]); 79.2431 and 69.9541 in experiment [1] (setting [11]); 62.156 and 55.5619 in experiment [1] (setting [12]). The “normalized activity” value in experiment [1] (setting [13]) is 48.3945 and 50.2294; in experiment [1] (setting [14]) it was 33.7729 and 21.5023; in experiment [1] (setting [17]), 18.3486 and 12.328; in experiment [1] (setting [15]) it was 97.1904 and 78.0963; in experiment [1] (setting [16]), 97.1904 and 100.

Regarding `O=C(N[C@@H](CC1CC1)C(=O)N[C@@H](C[C@@H]1CCNC1=O)C(O)S(=O)(=O)O)OCc1cccc(Cl)c1` (stereo partly drawn) [NK01-57], the “observed inactivation rate vs compound concentration (Figure S19, replicate values)” value in experiment [2] was 0.0175 and 0.0065 and 0.0112 and -0.01176 and 0.0254 and -0.00163 and 0.0094 and -0.00166 and -0.05051 and -0.00614 and -0.01353 and -0.00565 and -0.00112 and -0.0108 and -0.00266 and -0.00784 and 0.0038 and -0.0081 and -0.00313 and -0.00276 and 0.0019. In experiment [3], the “inhibition” value is 104.54 and 74.4176 and 64.8123 and 55.4072 and 79.8077 and 89.5745 and 61.4462 and 18.0183 and 12.437 and -10.4634 and -16.0501 and 3.693 and 24.8584 and -12.4097 and 6.795 and 29.8589 and -3.6952 and 33.5228 and 9.378 and -5.3463 and 36.5619. Further, the EC50 in experiment [3] stood at 92 nM. Also, the IC50 in experiment [1] (setting [6]) is 13 nM. In addition, the “normalized activity” value is 95.6172 and 86.9248 in experiment [1] (setting [7]); 85.9021 and 78.3053 in experiment [1] (setting [8]); 79.0358 and 66.0336 in experiment [1] (setting [9]); 62.3083 and 48.2104 in experiment [1] (setting [10]); 43.3163 and 27.8305 in experiment [1] (setting [11]); 26.2235 and 13.9518 in experiment [1] (setting [12]). Besides, the “normalized activity” value was 6.939 and 9.715 in experiment [1] (setting [14]); 9.934 and 9.2038 in experiment [1] (setting [17]); 107.889 and 102.703 in experiment [1] (setting [15]); 100 and 101.315 in experiment [1] (setting [16]).

`CSc1ncccc1C#N` [NT-1-21]: the “Normalized SARS-CoV-2 3CL protease activity” value in experiment [1] (setting [4]) is 1.059 and 1.079 and 0.9766.

Regarding `CS(=O)(=O)c1ncccc1C#N` [NT-1-24], the “Normalized SARS-CoV-2 3CL protease activity” value in experiment [1] (setting [4]) is 0.9913 and 0.611 and 0.8892.

With `CS(=O)(=O)c1nc(C(F)(F)F)ccc1C#N` [NT-1-32], in experiment [1], the “Normalized SARS-CoV-2 3CL protease activity” value was 0.9191 and 0.9056 and 0.7525.
